Measurements published in patent publication US20110189204A1, “Treatment of Disease with Proteasone Inhibitors” (priority 2009, published 2011).

Legend:
[1] = in vivo
Description: (§1) For each study group, the following toxicological screening was performed: mortality, body weight, food consumption, clinical observations, ophthalmology, electrocardiography, hematology, serum biochemistry, urinalysis, injection site evaluations (erythema and edema), neurological examinations, histology, and peripheral neuropathy.

[2] = Plasma pharmacokinetics, bi-weekly/weekly subcutaneous dosing (TOX7345)
Description: (§3) For bi-weekly dosing treatment (TOX 7345), a group of 3 male and 3 female Cynomolgus monkeys were dosed for 4 cycles.
(§4) The test substance and vehicle were freshly prepared on the day of use.
(§5) For each study, the values of the time to maximum plasma concentration (Tmax), the maximum plasma concentration (Cmax) were determined by visual inspection of the data. The area-under-the plasma-concentration-time curve (AUC) was estimated by the linear trapezoidal rule. Plasma samples were analyzed using a validated LC/MS/MS method with a lower quantification limit of about 0.5 ng/ml.

[3] = test system: 20S proteasome (chymotryptic activity) in whole blood; test: 20S proteasome inhibition in whole blood, bi-weekly/weekly dosing (TOX7345); format: in vivo, Cynomolgus monkeys
Description: (§2) For each study, the 20S proteasome activity in whole blood was determined, as described in Lightcap, Clin. Chem., 46:673 (2000). The chymotryptic activity was assayed by measuring the rate at which the proteasome hydrolyzed an amide bond in a small fluorescence tagged polypeptide substrate. The specific activity (Spa) was normalized to the amount of protein present in the lysate.

[4] = test system: 20S proteasome (chymotryptic activity) in whole blood; test: 20S proteasome inhibition in whole blood, daily (5/7 days) dosing (TOX8394); format: in vivo, Cynomolgus monkeys
Description: as §2

[5] = Toxicological screening, bi-weekly/weekly subcutaneous dosing (TOX7345)
Description: as §1

[6] = in vivo; conditions: both, cynomolgus monkey, plasma
[7] = in vivo; conditions: both, cynomolgus monkey, plasma; remark: listed apart in the source
Description: as §3, §4, §5

[8] = Plasma pharmacokinetics, daily (5/7 days) subcutaneous dosing (TOX8394)
[9] = both, cynomolgus monkey, in vivo
[10] = day 1, 0.075 mg/kg sc bi-weekly
[11] = day 32, 0.075 mg/kg sc bi-weekly
[12] = day 74, 0.075 mg/kg sc bi-weekly
[13] = day 3, 0.0166 mg/kg sc daily (5/7 days)
[14] = day 3, 0.0333 mg/kg sc daily (5/7 days)
[15] = day 3, 0.05 mg/kg sc daily (5/7 days)
[16] = day 54, 0.0166 mg/kg sc daily (5/7 days)
[17] = day 54, 0.0333 mg/kg sc daily (5/7 days)
[18] = day 54, 0.05 mg/kg sc daily (5/7 days)
[19] = cynomolgus monkey, in vivo, 0.1 mg/kg

For `CC(C)C[C@H](NC(=O)[C@H](Cc1ccccc1)NC(=O)c1cnccn1)B(O)O` [bortezomib], the Kidney weights ([1]; 0.05 mg/kg/dose, all monkeys) was “greater than kidney weights of control monkeys”, the “Injection site histopathological finding” value ([1]; 0.05 mg/kg/dose, male and female) was “fibroplasia” and the “Peripheral neuropathy: peripheral (sciatic, tibial and peroneal nerves) degeneration” value ([1]; 0.0333-0.05 mg/kg) was “peroneal nerves): minimal”. For the same compound, the “Peripheral neuropathy: spinal cord dorsal funiculi (cervical & lumbar)” value ([1]; 0.0333-0.05 mg/kg) was “& lumbar) minimal degeneration”, the “Clinical observations: faeces” value ([1]; 0.0333 or 0.05 mg/kg) was “Abnormal faeces (soft, liquid, 0.0333” and the MTD at 8 weeks [1, 9] was ~0.05 mg/kg. The Body weight ([1]; cynomolgus monkey, in vivo) was “No body weight loss at any other”, the “ECG, ophthalmology, rectal temperature or blood pressure” value ([1]; cynomolgus monkey, in vivo) was “No bortezomib-related changes” and the Electrocardiography ([1]; cynomolgus monkey, in vivo) was “No abnormalities found at any dose”. The Fibrinogen concentrations ([1]; cynomolgus monkey, in vivo) was “fibrinogen concentrations increased”, the “Gross abnormalities at necropsy” value ([1]; cynomolgus monkey, in vivo) was “no gross abnormalities” and the “Haemathology: mean platelet volume” value ([1]; cynomolgus monkey, in vivo) was “mean platelet volume increased”. The “Haemathology: platelet numbers” value ([1]; cynomolgus monkey, in vivo) was “Platelet numbers decreased”, the “Histology: BONE MARROW” value ([1]; cynomolgus monkey, in vivo) was “BONE MARROW: no findings” and the “Histology: LYMPH NODES” value ([1]; cynomolgus monkey, in vivo) was “LYMPH NODES: no findings”. For the same compound, the “Histology: SPLEEN” value ([1]; cynomolgus monkey, in vivo) was “SPLEEN: no findings”, the Ophthalmology ([1]; cynomolgus monkey, in vivo) was “No treatment related changes” and the Urinalysis ([1]; cynomolgus monkey, in vivo) was “No treatment related findings”. The “Urinalysis parameters creatinine, inorganic phosphorus, ketones, protein and sodium” value ([1]; cynomolgus monkey, in vivo) was “Increases”, the Tolerability ([1]; cynomolgus monkey, in vivo, sc) was “well tolerated” and the Stool ([1]; multiple days, one male each at 0.0166 and 0.0333, one female at 0.05 mg/kg/dose) was “Soft stool”. The Body weight lost ([1]; nine male and female monkeys in the 0.0333 and 0.05 mg/kg/dose groups) was 3-12%, the “No Observed Adverse Effect Level (NOAEL)” value ([1]; repeated five times weekly sc administration for 8 weeks) was “cannot be identified” and the AUC0-72 h [2, 10] was 36.7 ng·h/mL. It also gave an AUC0-72 h ([2]; day 1, 0.1 mg/kg sc bi-weekly) of 77.5 ng·h/mL, an AUC0-72 h [2, 11] of 110 ng·h/mL and a Cmax [2, 11] of 58.8 ng/mL. For the same compound, the Tmax [2, 11] was 15 min, the AUC0-72 h ([2]; day 32, 0.1 mg/kg sc bi-weekly) was 227 ng·h/mL and the Tmax ([2]; day 32, 0.1 mg/kg sc bi-weekly) was 7.14 min. The AUC0-72 h ([2]; day 50, 0.166 mg/kg sc weekly) was 205 ng·h/mL, the Cmax ([2]; day 50, 0.166 mg/kg sc weekly) was 168 ng/mL and the AUC0-72 h [2, 12] was 122 ng·h/mL. For the same compound, the Cmax [2, 12] was 70.1 ng/mL, the Tmax [2, 12] was 8.34 min and the AUC0-72 h ([2]; day 74, 0.1 mg/kg sc bi-weekly) was 211 ng·h/mL. For the same compound, the Cmax ([2]; day 74, 0.1 mg/kg sc bi-weekly) was 113 ng/mL, the Tmax ([2]; day 74, 0.1 mg/kg sc bi-weekly) was 9.66 min and the AUE0-72h ([3]; about 1.2 mg/m^2 bi-weekly) was 1500 %. h. For the same compound, the “strongest inhibition (Emax)” value ([3]; bi-weekly regimen, 0.1 mg/kg) was 74%, the “cumulative weekly AUE” value ([3]; bi-weekly schedule, about 1.2 mg/m^2) was 3000 %. h and the AUE0-24 h [3, 10] was 585 (87) % Inhibition · time. The “Emax (% proteasome inhibition)” value [3, 10] was 63%, the “Tmax (time of occurrence of Emax)” value [3, 10] was 30 min and the AUE0-24 h ([3]; day 1, 0.1 mg/kg sc bi-weekly) was 926 (99) % Inhibition · time. For the same compound, the “Emax (% proteasome inhibition)” value ([3]; day 1, 0.1 mg/kg sc bi-weekly) was 74%, the “Tmax (time of occurrence of Emax)” value ([3]; day 1, 0.1 mg/kg sc bi-weekly) was 30 min and the AUE0-24 h ([3]; day 1, 0.166 mg/kg sc weekly) was 931 (124) % Inhibition · time. For the same compound, the “Emax (% proteasome inhibition)” value ([3]; day 1, 0.166 mg/kg sc weekly) was 78%, the “Tmax (time of occurrence of Emax)” value ([3]; day 1, 0.166 mg/kg sc weekly) was 60 min and the AUE0-24 h [3, 11] was 1086 (158) % Inhibition · time. For the same compound, the “Emax (% proteasome inhibition)” value [3, 11] was 68%, the “Tmax (time of occurrence of Emax)” value [3, 11] was 30 min and the AUE0-24 h ([3]; day 32, 0.1 mg/kg sc bi-weekly) was 1454 (201) % Inhibition · time. For the same compound, the “Emax (% proteasome inhibition)” value ([3]; day 32, 0.1 mg/kg sc bi-weekly) was 71%, the “Tmax (time of occurrence of Emax)” value ([3]; day 32, 0.1 mg/kg sc bi-weekly) was 30 min and the AUE0-24 h ([3]; day 50, 0.166 mg/kg sc weekly) was 2152 (222) % Inhibition · time. For the same compound, the “Emax (% proteasome inhibition)” value ([3]; day 50, 0.166 mg/kg sc weekly) was 78%, the “Tmax (time of occurrence of Emax)” value ([3]; day 50, 0.166 mg/kg sc weekly) was 30 min and the AUE0-24 h [3, 12] was 1111 (116) % Inhibition · time. For the same compound, the “Emax (% proteasome inhibition)” value [3, 12] was 67%, the “Tmax (time of occurrence of Emax)” value [3, 12] was 30 min and the AUE0-24 h ([3]; day 74, 0.1 mg/kg sc bi-weekly) was 1584 (210) % Inhibition · time. For the same compound, the “Emax (% proteasome inhibition)” value ([3]; day 74, 0.1 mg/kg sc bi-weekly) was 72%, the “Tmax (time of occurrence of Emax)” value ([3]; day 74, 0.1 mg/kg sc bi-weekly) was 30 min and the AUE0-24 h ([3]; day 78, 0.166 mg/kg sc weekly) was 1468 (219) % Inhibition · time. For the same compound, the “Emax (% proteasome inhibition)” value ([3]; day 78, 0.166 mg/kg sc weekly) was 77%, the “Tmax (time of occurrence of Emax)” value ([3]; day 78, 0.166 mg/kg sc weekly) was 60 min and the “time of maximal proteasome inhibition after dosing” value ([3]; on average, sc administration) was “about 0.5 h”. The maximal inhibition ([3]; weekly 0.166 mg/kg dose group) was 78%, the “cumulative AUE (over 1 week), daily schedule higher than bi-weekly” value ([4]; 0.05 mg/kg daily vs 0.1 mg/kg bi-weekly) was “about 50%” and the AUE0-24 h ([4]; about 0.6 mg/m^2 once daily) was 900 %. h. The “remaining 20S proteasome inhibition at the end of each 2-day drug-holiday” value ([4]; activity determined on various days before dosing) was “no indication for remaining 20S proteasome inhibition”, the “highest inhibition (Emax)” value ([4]; daily schedule, 0.05 mg/kg) was 73% and the “cumulative weekly AUE” value ([4]; daily schedule, about 0.6 mg/m^2) was 4500 %. h. The AUE0-24 h [4, 13] was 603 (77) % Inhibition · time, the “Emax (% proteasome inhibition)” value [4, 13] was 48% and the “Tmax (time of occurrence of Emax)” value [4, 13] was 30 min. The AUE0-24 h [4, 14] was 685 (32) % Inhibition · time, the “Emax (% proteasome inhibition)” value [4, 14] was 58% and the “Tmax (time of occurrence of Emax)” value [4, 14] was 30 min. For the same compound, the AUE0-24 h [4, 15] was 802 (67) % Inhibition · time, the “Emax (% proteasome inhibition)” value [4, 15] was 65% and the “Tmax (time of occurrence of Emax)” value [4, 15] was 30 min. For the same compound, the AUE0-24 h [4, 16] was 481 (103) % Inhibition · time, the “Emax (% proteasome inhibition)” value [4, 16] was 38% and the “Tmax (time of occurrence of Emax)” value [4, 16] was 30 min. The AUE0-24 h [4, 17] was 895 (125) % Inhibition · time, the “Emax (% proteasome inhibition)” value [4, 17] was 62% and the “Tmax (time of occurrence of Emax)” value [4, 17] was 30 min. For the same compound, the AUE0-24 h [4, 18] was 1039 (114) % Inhibition · time, the “Emax (% proteasome inhibition)” value [4, 18] was 73% and the “Tmax (time of occurrence of Emax)” value [4, 18] was 30 min. For the same compound, the “time of maximal proteasome inhibition after dosing” value ([4]; on average, sc administration) was “about 0.5 h”, the Mortality ([5]; 0.166 mg/kg weekly, considered treatment related) was 1 F (day 72), 1 M (day 79), at and the MTD at 4 cycles [5, 9] was ~0.1 mg/kg. The “Peripheral neuropathy: focal axonal neurofiber degeneration, spinal cord (dorsal root ganglia)” value [5, 9] was 0.1/0.166 (weekly) mg/kg minimal, the Body weight ([5]; cynomolgus monkey, in vivo) was “No body weight loss at other dose” and the Electrocardiography ([5]; cynomolgus monkey, in vivo) was “No abnormalities found at any”. The Haemathology ([5]; cynomolgus monkey, in vivo) was “No hematological changes related”, the “Histology: PANCREAS” value ([5]; cynomolgus monkey, in vivo) was “PANCREAS: no findings” and the “Histology: PROSTATE” value ([5]; cynomolgus monkey, in vivo) was “PROSTATE: no findings”. For the same compound, the Ophthalmology ([5]; cynomolgus monkey, in vivo) was “No treatment related changes”, the Urinalysis ([5]; cynomolgus monkey, in vivo) was “No treatment related findings” and the “Histology: LYMPH NODES” value [5, 19] was “LYMPH NODES: lymphoid atrophy”. The “Histology: SPLEEN” value [5, 19] was “SPLEEN: pulp, lymphoid atrophy”, the Mortality ([5]; other dose levels (0.075, 0.1 mg/kg bi-weekly)) was “No mortality at other dose levels” and the Tmax ([6]; Cynomolgus, subcutaneous) was ≤ 15 min. It also gave a Cmax ([6]; sc, 0.0166 mg/kg) of 10.7 ng/mL, a Tmax ([6]; sc, 0.0166 mg/kg) of 8.88 min and a Cmax ([6]; sc, 0.0333 mg/kg) of 23.7 ng/mL. For the same compound, the Tmax ([6]; sc, 0.0333 mg/kg) was 6.96 min, the Cmax ([6]; sc, 0.05 mg/kg) was 34.2 ng/mL and the Tmax ([6]; sc, 0.05 mg/kg) was 12 min. It also gave an AUC(0-t) ([7]; Cynomolgus, sc, 0.166 mg/kg) of 229 ng·h/mL, a Cmax ([7]; Cynomolgus, sc, 0.166 mg/kg) of 158 ng/mL and a Tmax ([7]; Cynomolgus, sc, 0.166 mg/kg) of 13.8 min. The Tmax ([7]; Cynomolgus, subcutaneous) was ≤ 15 min, the Cmax ([7]; sc, 0.075 mg/kg) was 61.1 ng/mL and the Cmax ([7]; sc, 0.1 mg/kg) was 86.2 ng/mL. It also gave a Tmax ([7]; sc, 0.1 mg/kg) of 7.02 min, an AUC(0-t) ([7]; sc, 0.166 mg/kg) of 160 ng·h/mL and a Cmax ([7]; sc, 0.166 mg/kg) of 144 ng/mL. The Tmax ([7]; sc, 0.166 mg/kg) was 7.02 min, the Tmax [8, 13] was 0.138 (0.05) h and the Tmax [8, 14] was 0.165 (0.07) h. For the same compound, the Tmax [8, 15] was 0.203 (0.07) h, the Tmax [8, 16] was 0.161 (0.07) h and the Tmax [8, 17] was 0.184 (0.07) h. The Tmax [8, 18] was 0.185 (0.07) h.
